# From patent publication US11912693B2, “Compounds for modulating S1P1 activity and methods of using the same” (TREVENA, INC., priority 2017, dated 2024)
# Key:
# [1] = biological target: T1, human sphingosine-1-phosphate receptor 1 (S1P1) (Homo sapiens (Human), UniProt P21453); assay: Inhibition of cAMP production (HTRF cAMP HiRange), S1P1 CHO-K1 cells; type: cell-based; conditions: for Emax: CHO-K1, efficacy (SPAN) normalized to fingolimod, read-out: hS1P1 cAMP SPAN; for hS1P1 cAMP pEC50: inhibition of cAMP production, S1P1 CHO-K1 cells
# Method in brief: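 CHO-K1 cells stably co-expressing human S1P1 (C-terminal Prolink tag) and EA-β-arrestin2 were grown in AssayComplete Media 6 at 37° C. and 5% CO2, plated, and incubated overnight. Agonist-driven inhibition of intracellular cAMP was read by TR-FRET with the HTRF cAMP HiRange kit on a PheraStar reader. Potency is pEC50, and efficacy (SPAN) is normalized to fingolimod.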
# Target sequence in this assay (P21453 whole entry, looked up): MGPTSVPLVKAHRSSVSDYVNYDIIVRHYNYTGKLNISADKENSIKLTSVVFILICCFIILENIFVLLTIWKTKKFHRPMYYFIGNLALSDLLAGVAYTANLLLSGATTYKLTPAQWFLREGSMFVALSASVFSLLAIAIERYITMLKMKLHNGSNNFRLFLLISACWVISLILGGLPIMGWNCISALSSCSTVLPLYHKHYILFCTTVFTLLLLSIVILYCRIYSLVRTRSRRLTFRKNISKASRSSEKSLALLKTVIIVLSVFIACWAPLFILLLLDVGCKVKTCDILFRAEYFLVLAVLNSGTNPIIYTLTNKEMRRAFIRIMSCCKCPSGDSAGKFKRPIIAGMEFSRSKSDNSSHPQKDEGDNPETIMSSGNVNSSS
# [2] = biological target: T1, human sphingosine-1-phosphate receptor 1 (S1P1); assay: β-Arrestin2 recruitment assay (PathHunter), S1P1 CHO-K1 cells; type: cell-based; conditions: for Emax: CHO-K1, efficacy (SPAN) normalized to fingolimod, read-out: hS1P1 B-arrestin2 SPAN; for hS1P1 B-arrestin2 pEC50: β-arrestin2 recruitment, S1P1 CHO-K1 cells
# Method in brief: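 Enzyme-fragment complementation read-out: agonist-driven β-arrestin2 binding to ProLink-tagged human S1P1 in stable CHO-K1 cells restores β-galactosidase, measured 1 h at room temperature after a 60 min 37° C. compound incubation. Potency as pEC50, efficacy relative to fingolimod (SPAN).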
# Target sequence in this assay (P21453 whole entry, looked up): as above
# Target sequence in this assay (P32121 whole entry partner, looked up): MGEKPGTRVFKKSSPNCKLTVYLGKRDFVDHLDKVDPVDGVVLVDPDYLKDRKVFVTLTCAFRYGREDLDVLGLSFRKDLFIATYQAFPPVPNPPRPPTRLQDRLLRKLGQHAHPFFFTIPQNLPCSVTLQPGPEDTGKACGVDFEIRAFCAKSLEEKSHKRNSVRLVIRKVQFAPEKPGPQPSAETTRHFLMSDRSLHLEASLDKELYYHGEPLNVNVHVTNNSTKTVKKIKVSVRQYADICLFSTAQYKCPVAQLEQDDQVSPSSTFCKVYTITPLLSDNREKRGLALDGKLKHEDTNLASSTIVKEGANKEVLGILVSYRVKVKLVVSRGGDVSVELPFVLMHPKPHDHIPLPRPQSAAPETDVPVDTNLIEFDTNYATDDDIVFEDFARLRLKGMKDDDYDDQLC
Emax [1],hS1P1 cAMP pEC50 [1],Emax [2],hS1P1 B-arrestin2 pEC50 [2],Structure (SMILES)
> 75%,>6.5,> 75%,>5,"Cc1ccccc1-c1coc(-c2ccc3c(c2)nnn3C(C)C)n1 [Compound 433, 5-[4-(2-methylphenyl)-1,3-oxazol-2-yl]-1-(propan-2-yl)-1H-1,2,3-benzotriazole]"
< 75%,<6.5,> 75%,<5,"CC(C)n1nnc2cc(-c3nc4c(o3)CCCc3ccccc3-4)ccc21 [Compound 434, 4-[1-(propan-2-yl)-1H-1,2,3-benzotriazol-5-yl]-5-oxa-3-azatricyclo[8.4.0.0^2,6]tetradeca-1(14),2(6),3,10,12-pentaene]"
> 75%,>6.5,> 75%,<5,"COc1cc(C)c2nc(-c3ccc4c(c3)nnn4C(C)C)oc2c1 [Compound 436, 2-(1-isopropyl-1H-benzo[d][1,2,3]triazol-5-yl)-6-methoxy-4-methylbenzo[d]oxazole]"
> 75%,>6.5,< 75%,>5,"Cc1ccc2oc(-c3ccc4c(c3)nnn4CC(C)C)nc2c1 [Compound 437, 2-(1-isobutyl-1H-benzo[d][1,2,3]triazol-5-yl)-5-methylbenzo[d]oxazole]"
> 75%,>6.5,> 75%,>5,"CC(C)n1nnc2cc(-c3nc(-c4ccccc4N)co3)ccc21 [Compound 438, 2-{2-[1-(propan-2-yl)-1H-1,2,3-benzotriazol-5-yl]-1,3-oxazol-4-yl}aniline]"
> 75%,<6.5,> 75%,<5,"Cc1ccncc1-c1noc(-c2ccc3c(c2)nnn3C2CCOCC2)n1 [Compound 439, 5-[3-(4-methylpyridin-3-yl)-1,2,4-oxadiazol-5-yl]-1-(oxan-4-yl)-1H-1,2,3-benzotriazole]"
> 75%,>6.5,> 75%,>5,"N#Cc1cc(-c2nc(-c3ccc4sc(N)nc4c3)no2)ccc1NCC1CC1 [Compound 440, 5-(3-(2-aminobenzo[d]thiazol-5-yl)-1,2,4-oxadiazol-5-yl)-2-((cyclopropylmethyl)amino)benzonitrile]"
> 75%,>6.5,> 75%,>5,"CC(C)Nc1ccc(-c2nc(-c3ccc4sc(N)nc4c3)no2)cc1C#N [Compound 441, 5-(3-(2-aminobenzo[d]thiazol-5-yl)-1,2,4-oxadiazol-5-yl)-2-(isopropylamino)benzonitrile]"
< 75%,<6.5,< 75%,<5,"CCC1(CC)CC(=O)c2cc(-c3nc(-c4ccc5sc(N)nc5c4)no3)ccc2O1 [Compound 446, 6-(3-(2-aminobenzo[d]thiazol-5-yl)-1,2,4-oxadiazol-5-yl)-2,2-diethylchroman-4-one]"
,>6.5,,>5,"Cc1cccc2oc(-c3ccc4c(c3)nnn4CC(C)C)nc12 [Compound 447, 2-(1-isobutyl-1H-benzo[d][1,2,3]triazol-5-yl)-4-methylbenzo[d]oxazole]"
,<6.5,,<5,"Cc1ccc2nc(-c3ccc4c(c3)nnn4CC(C)C)oc2c1 [Compound 448, 2-(1-isobutyl-1H-benzo[d][1,2,3]triazol-5-yl)-6-methylbenzo[d]oxazole]"
,<6.5,,<5,"Cc1cccc2nc(-c3ccc4c(c3)nnn4CC(C)C)oc12 [Compound 449, 2-(1-isobutyl-1H-benzo[d][1,2,3]triazol-5-yl)-7-methylbenzo[d]oxazole]"
> 75%,>6.5,> 75%,>5,"COc1cccc2oc(-c3ccc4c(c3)nnn4CC(C)C)nc12 [Compound 450, 2-(1-isobutyl-1H-benzo[d][1,2,3]triazol-5-yl)-4-methoxybenzo[d]oxazole]"
< 75%,>6.5,< 75%,>5,"COc1ccc2oc(-c3ccc4c(c3)nnn4CC(C)C)nc2c1 [Compound 451, 2-(1-isobutyl-1H-benzo[d][1,2,3]triazol-5-yl)-5-methoxybenzo[d]oxazole]"
> 75%,<6.5,< 75%,>5,"COc1ccc2nc(-c3ccc4c(c3)nnn4CC(C)C)oc2c1 [Compound 452, 2-(1-isobutyl-1H-benzo[d][1,2,3]triazol-5-yl)-6-methoxybenzo[d]oxazole]"
,>6.5,,>5,"CC(C)Cn1nnc2cc(-c3nc4c(Cl)cccc4o3)ccc21 [Compound 453, 4-chloro-2-(1-isobutyl-1H-benzo[d][1,2,3]triazol-5-yl)benzo[d]oxazole]"
,>6.5,,>5,"CC(C)Cn1nnc2cc(-c3nc4cccc(Br)c4o3)ccc21 [Compound 454, 7-bromo-2-(1-isobutyl-1H-benzo[d][1,2,3]triazol-5-yl)benzo[d]oxazole]"
> 75%,>6.5,> 75%,<5,"CC(C)n1nnc2cc(-c3nc4c(o3)CCc3sccc3-4)ccc21 [Compound 456, 4-[1-(propan-2-yl)-1H-1,2,3-benzotriazol-5-yl]-5-oxa-10-thia-3-azatricyclo[7.3.0.0^2,6]dodeca-1(9),2(6),3,11-tetraene]"
> 75%,>6.5,> 75%,<5,"CC(C)n1nnc2cc(-c3nc4c(ccc5sccc54)o3)ccc21 [Compound 457, 4-[1-(propan-2-yl)-1H-1,2,3-benzotriazol-5-yl]-5-oxa-10-thia-3-azatricyclo[7.3.0.0^2,6]dodeca-1(9),2(6),3,7,11-pentaene]"
< 75%,<6.5,< 75%,<5,"CC(=O)Nc1ccccc1-c1coc(-c2ccc3c(c2)nnn3C(C)C)n1 [Compound 458, N-(2-{2-[1-(propan-2-yl)-1H-1,2,3-benzotriazol-5-yl]-1,3-oxazol-4-yl}phenyl)acetamide]"
> 75%,<6.5,> 75%,<5,"CC(C)n1nnc2cc(-c3nc(-c4cccs4)co3)ccc21 [Compound 459, 1-(propan-2-yl)-5-[4-(thiophen-2-yl)-1,3-oxazol-2-yl]-1H-1,2,3-benzotriazole]"
> 75%,<6.5,> 75%,<5,"CC(C)(O)Cn1nnc2cc(-c3nc(-c4ccncc4C(F)(F)F)no3)ccc21 [Compound 460, 2-methyl-1-(5-{3-[3-(trifluoromethyl)pyridin-4-yl]-1,2,4-oxadiazol-5-yl}-1H-1,2,3-benzotriazol-1-yl)propan-2-ol]"
> 75%,<6.5,> 75%,<5,"CC(C)Cn1nnc2cc(-c3nc4c(Br)cccc4o3)ccc21 [Compound 461, 4-bromo-2-(1-isobutyl-1H-benzo[d][1,2,3]triazol-5-yl)benzo[d]oxazole]"
> 75%,>6.5,> 75%,<5,"CC(C)n1nnc2cc(-c3nc4c(o3)COc3ccccc3-4)ccc21 [Compound 462, 5-{4H-chromeno[4,3-d][1,3]oxazol-2-yl}-1-(propan-2-yl)-1H-1,2,3-benzotriazole]"
,>6.5,,<5,"CCC1(CC)CC(=O)c2cc(-c3nc(-c4ccc[nH]4)no3)ccc2O1 [Compound 464, 6-(3-(1H-pyrrol-2-yl)-1,2,4-oxadiazol-5-yl)-2,2-diethylchroman-4-one]"
,>6.5,,>5,"CCC1(CC)CC(=O)c2cc(-c3nc(-c4ccco4)no3)ccc2O1 [Compound 465, 2,2-diethyl-6-(3-(furan-2-yl)-1,2,4-oxadiazol-5-yl)chroman-4-one]"
,<6.5,,<5,"CCC1(CC)CC(=O)c2cc(-c3nc(-c4cnc[nH]4)no3)ccc2O1 [Compound 466, 6-(3-(1H-imidazol-5-yl)-1,2,4-oxadiazol-5-yl)-2,2-diethylchroman-4-one]"
,>6.5,,>5,"CCC1(CC)CC(=O)c2cc(-c3nc(-c4cccs4)no3)ccc2O1 [Compound 467, 2,2-diethyl-6-(3-(thiophen-2-yl)-1,2,4-oxadiazol-5-yl)chroman-4-one]"
,>6.5,,>5,"CCC1(CC)CC(=O)c2cc(-c3nc(-c4ccsc4)no3)ccc2O1 [Compound 468, 2,2-diethyl-6-(3-(thiophen-3-yl)-1,2,4-oxadiazol-5-yl)chroman-4-one]"
,<6.5,,<5,"CCC1(CC)CC(=O)c2cc(-c3nc(-c4ccn[nH]4)no3)ccc2O1 [Compound 470, 6-(3-(1H-pyrazol-5-yl)-1,2,4-oxadiazol-5-yl)-2,2-diethylchroman-4-one]"
